Assay results as given in patent US12568972B2, “Pyridazinol compounds and derivatives, preparation methods, herbicidal compositions and applications thereof” (Qingdao Kingagroot Chemical Compound Co., Ltd., priority 2018, dated 2026).

What was measured:
Assay in all cases: Post-emergence test, weed control effect
Type in all cases: in vivo
Details in all cases: after 3 weeks
Amaranthus retroflexus = tested on: Amaranthus retroflexus
Method in brief: (§1)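 Seeds are sown in soil pots and raised in the greenhouse until the 2-3 leaf stage. Plants are then sprayed with compound dissolved in acetone with Tween-80, diluted in water and supplemented with 80% vegetable oil methyl ester synergist at 1500 g/ha, and fresh weight inhibition is rated 0-10 three weeks later.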

Chenopodiaceae = tested on: Chenopodiaceae
Method in brief: as §1

Rorippa indica = tested on: Rorippa indica
Method in brief: as §1

Veronica polita = tested on: Veronica polita
Method in brief: as §1

Oc1cc(C(F)(F)F)nnc1-c1c(F)cccc1F [Compound 36]
10: weed control effect (activity level), Amaranthus retroflexus (Amaranthus retroflexus; dose 1000 g/ha) | weed control effect (activity level), Chenopodiaceae (Chenopodiaceae; dose 1000 g/ha) | weed control effect (activity level), Rorippa indica (Rorippa indica; dose 1000 g/ha) | weed control effect (activity level), Veronica polita (Veronica polita; dose 1000 g/ha)

CC(=O)Oc1cc(C(F)(F)F)nnc1-c1cccc(F)c1 [Compound 1-1]
10: weed control effect, Amaranthus retroflexus (activity level) (Amaranthus retroflexus; Dose 3000 g/ha) | weed control effect, Chenopodiaceae (activity level) (Chenopodiaceae; Dose 3000 g/ha) | weed control effect, Rorippa indica (activity level) (Rorippa indica; Dose 3000 g/ha) | weed control effect, Veronica polita (activity level) (Veronica polita; Dose 3000 g/ha)

O=C(Oc1cc(C(F)(F)F)nnc1-c1ccccc1)c1ccc2occc2c1 [Compound 1-117]
10: weed control effect, Amaranthus retroflexus (activity level) (Amaranthus retroflexus; Dose 3000 g/ha) | weed control effect, Chenopodiaceae (activity level) (Chenopodiaceae; Dose 3000 g/ha) | weed control effect, Rorippa indica (activity level) (Rorippa indica; Dose 3000 g/ha) | weed control effect, Veronica polita (activity level) (Veronica polita; Dose 3000 g/ha)

Oc1cc(CF)nnc1-c1cccnc1F [Compound 1076]
10: weed control effect (activity level), Amaranthus retroflexus (Amaranthus retroflexus; Dose 3000 g/ha) | weed control effect (activity level), Chenopodiaceae (Chenopodiaceae; Dose 3000 g/ha) | weed control effect (activity level), Rorippa indica (Rorippa indica; Dose 3000 g/ha) | weed control effect (activity level), Veronica polita (Veronica polita; Dose 3000 g/ha)

Oc1cc(C(F)(F)F)nnc1-c1ccc(C(F)(F)F)cc1 [Compound 746]
10: weed control effect (activity level), Amaranthus retroflexus (Amaranthus retroflexus; Dose 3000 g/ha) | weed control effect (activity level), Chenopodiaceae (Chenopodiaceae; Dose 3000 g/ha) | weed control effect (activity level), Rorippa indica (Rorippa indica; Dose 3000 g/ha) | weed control effect (activity level), Veronica polita (Veronica polita; Dose 3000 g/ha)

Oc1cc(C(F)(F)F)nnc1-c1ccc(I)cc1 [Compound 33]
10: weed control effect (activity level), Amaranthus retroflexus (Amaranthus retroflexus; dose 1000 g/ha) | weed control effect (activity level), Chenopodiaceae (Chenopodiaceae; dose 1000 g/ha) | weed control effect (activity level), Rorippa indica (Rorippa indica; dose 1000 g/ha) | weed control effect (activity level), Veronica polita (Veronica polita; dose 1000 g/ha)

O=C(Oc1cc(C(F)(F)F)nnc1-c1ccc(Cl)cc1)c1ccc2ccccc2n1 [Compound 1-116]
10: weed control effect, Amaranthus retroflexus (activity level) (Amaranthus retroflexus; Dose 3000 g/ha) | weed control effect, Chenopodiaceae (activity level) (Chenopodiaceae; Dose 3000 g/ha) | weed control effect, Rorippa indica (activity level) (Rorippa indica; Dose 3000 g/ha) | weed control effect, Veronica polita (activity level) (Veronica polita; Dose 3000 g/ha)

Oc1cc(C(F)(F)F)nnc1-c1cncc(Br)c1 [Compound 967]
10: weed control effect (activity level), Amaranthus retroflexus (Amaranthus retroflexus; Dose 3000 g/ha) | weed control effect (activity level), Chenopodiaceae (Chenopodiaceae; Dose 3000 g/ha) | weed control effect (activity level), Rorippa indica (Rorippa indica; Dose 3000 g/ha) | weed control effect (activity level), Veronica polita (Veronica polita; Dose 3000 g/ha)

Oc1cc(C(F)(F)F)nnc1-c1cc(C(F)(F)F)co1 [Compound 418]
10: weed control effect (activity level), Amaranthus retroflexus (Amaranthus retroflexus; Dose 3000 g/ha) | weed control effect (activity level), Chenopodiaceae (Chenopodiaceae; Dose 3000 g/ha) | weed control effect (activity level), Rorippa indica (Rorippa indica; Dose 3000 g/ha) | weed control effect (activity level), Veronica polita (Veronica polita; Dose 3000 g/ha)

Cn1ccc2ccc(S(=O)(=O)Oc3cc(C(F)(F)F)nnc3-c3ccc(F)c(F)c3)cc21 [Compound 1-152]
10: weed control effect, Amaranthus retroflexus (activity level) (Amaranthus retroflexus; Dose 3000 g/ha) | weed control effect, Chenopodiaceae (activity level) (Chenopodiaceae; Dose 3000 g/ha) | weed control effect, Rorippa indica (activity level) (Rorippa indica; Dose 3000 g/ha) | weed control effect, Veronica polita (activity level) (Veronica polita; Dose 3000 g/ha)

Oc1cc(C(F)(F)F)nnc1-c1cnccc1Cl [Compound 204]
10: weed control effect (activity level), Amaranthus retroflexus (Amaranthus retroflexus; dose 2000 g/ha) | weed control effect (activity level), Chenopodiaceae (Chenopodiaceae; dose 2000 g/ha) | weed control effect (activity level), Rorippa indica (Rorippa indica; dose 2000 g/ha) | weed control effect (activity level), Veronica polita (Veronica polita; dose 2000 g/ha)

COc1ncccc1-c1nnc(C(F)(F)F)cc1O [Compound 227]
10: weed control effect (activity level), Amaranthus retroflexus (Amaranthus retroflexus; dose 2000 g/ha) | weed control effect (activity level), Chenopodiaceae (Chenopodiaceae; dose 2000 g/ha) | weed control effect (activity level), Rorippa indica (Rorippa indica; dose 2000 g/ha) | weed control effect (activity level), Veronica polita (Veronica polita; dose 2000 g/ha)

O=C(Oc1cc(C(F)(F)F)nnc1-c1ccc(Cl)cc1)c1ccccc1Cl [Compound 1-83]
10: weed control effect, Amaranthus retroflexus (activity level) (Amaranthus retroflexus; Dose 3000 g/ha) | weed control effect, Chenopodiaceae (activity level) (Chenopodiaceae; Dose 3000 g/ha) | weed control effect, Rorippa indica (activity level) (Rorippa indica; Dose 3000 g/ha) | weed control effect, Veronica polita (activity level) (Veronica polita; Dose 3000 g/ha)

Oc1cc(C(F)(F)F)nnc1-c1cc(C(F)(F)F)ccc1F [Compound 50]
10: weed control effect (activity level), Amaranthus retroflexus (Amaranthus retroflexus; dose 1000 g/ha) | weed control effect (activity level), Chenopodiaceae (Chenopodiaceae; dose 1000 g/ha) | weed control effect (activity level), Rorippa indica (Rorippa indica; dose 1000 g/ha) | weed control effect (activity level), Veronica polita (Veronica polita; dose 1000 g/ha)

O=Cc1ccc(-c2nnc(C(F)(F)F)cc2O)c(F)c1 [Compound 64]
10: weed control effect (activity level), Amaranthus retroflexus (Amaranthus retroflexus; dose 1000 g/ha) | weed control effect (activity level), Chenopodiaceae (Chenopodiaceae; dose 1000 g/ha) | weed control effect (activity level), Rorippa indica (Rorippa indica; dose 1000 g/ha) | weed control effect (activity level), Veronica polita (Veronica polita; dose 1000 g/ha)

Cn1nc(C#N)cc1-c1nnc(C(F)(F)F)cc1O [Compound 791]
10: weed control effect (activity level), Amaranthus retroflexus (Amaranthus retroflexus; Dose 3000 g/ha) | weed control effect (activity level), Chenopodiaceae (Chenopodiaceae; Dose 3000 g/ha) | weed control effect (activity level), Rorippa indica (Rorippa indica; Dose 3000 g/ha) | weed control effect (activity level), Veronica polita (Veronica polita; Dose 3000 g/ha)

Oc1cc(C(F)(F)F)nnc1-c1cc(F)cnc1Cl [Compound 1004]
10: weed control effect (activity level), Amaranthus retroflexus (Amaranthus retroflexus; Dose 3000 g/ha) | weed control effect (activity level), Chenopodiaceae (Chenopodiaceae; Dose 3000 g/ha) | weed control effect (activity level), Rorippa indica (Rorippa indica; Dose 3000 g/ha) | weed control effect (activity level), Veronica polita (Veronica polita; Dose 3000 g/ha)

Oc1cc(C(F)(F)F)nnc1-c1cccc(Cl)c1F [Compound 45]
10: weed control effect (activity level), Amaranthus retroflexus (Amaranthus retroflexus; dose 1000 g/ha) | weed control effect (activity level), Chenopodiaceae (Chenopodiaceae; dose 1000 g/ha) | weed control effect (activity level), Rorippa indica (Rorippa indica; dose 1000 g/ha) | weed control effect (activity level), Veronica polita (Veronica polita; dose 1000 g/ha)
